# From patent US9624170B2, “4-(piperrazin-1-yl)-pyrrolidin-2-one compounds as monoacylglycerol lipase (MAGL) inhibitors” (TAKEDA PHARMACEUTICAL COMPANY LIMITED, priority 2013, dated 2017)
# Molecular target: T1, human MAGL (His-hMAGL) (Homo sapiens, UniProt Q99685)
# T1 construct: made in house; host or cells: Escherichia coli BL21(DE3)
# T1 sequence (Q99685 1-303): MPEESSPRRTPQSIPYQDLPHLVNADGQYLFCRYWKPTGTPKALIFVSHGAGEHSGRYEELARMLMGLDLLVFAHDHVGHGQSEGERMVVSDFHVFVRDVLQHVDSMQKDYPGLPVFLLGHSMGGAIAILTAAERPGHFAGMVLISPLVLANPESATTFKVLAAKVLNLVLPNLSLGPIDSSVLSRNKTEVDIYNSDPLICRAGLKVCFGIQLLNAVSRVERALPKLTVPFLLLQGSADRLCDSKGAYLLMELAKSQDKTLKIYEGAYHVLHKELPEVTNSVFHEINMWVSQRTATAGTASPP
# Experiment: Measurement of MAGL inhibitory activity by mass spectrometry
# Type: biochemical
# Conditions: 10 μM test compound; substrate 2-arachidonylglycerol, arachidonic acid by RapidFire-mass spectrometry
# Procedure, shortened: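 His-tagged human MAGL was reacted with 150 μM 2-arachidonylglycerol substrate (stock, added by 5 μL) for 10 min at room temperature, then stopped with formic acid. Arachidonic acid product was quantified by RapidFire–triple-quadrupole MS in negative SRM mode, corrected by arachidonic acid-d8, and converted to percent inhibition.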
row,inhibition at 10 µM [%],Structure (SMILES)
1,97,"O=C(c1nccs1)N1CCN([C@@H]2CC(=O)N(c3ccc4c(ccn4-c4ncc(C(F)(F)F)cn4)c3)C2)CC1 [Example 80, (4R)-4-(4-(1,3-Thiazol-2-ylcarbonyl)piperazin-1-yl)-1-(1-(5-(trifluoromethyl)pyrimidin-2-yl)-1H-indol-5-yl)pyrrolidin-2-one]"

# Test system: Gfap, IL-1β, IL-6 gene expression in hippocampus
# Experiment: Measurement of gene expression in hippocampus of kainic acid intraventricular administration rat
# Type: in vivo
# Conditions: SD rats, 30 mg/kg by gavage, hippocampus 24 hr after administration
Structure (SMILES),effect to decrease expression of a gene of glial fibrillary acidic protein (GFAP) (FIG. 3),effect to decrease expression of a gene of interleukin 1β (IL-1β) (FIG. 4),effect to decrease expression of a gene of interleukin 6 (IL-6) (FIG. 5)
"O=C(c1nccs1)N1CCN([C@@H]2CC(=O)N(c3ccc4c(ccn4-c4ncc(C(F)(F)F)cn4)c3)C2)CC1 [compound 1, (4R)-4-(4-(1,3-thiazol-2-ylcarbonyl)piperazin-1-yl)-1-(1-(5-(trifluoromethyl)pyrimidin-2-yl)-1H-indol-5-yl)pyrrolidin-2-one]",decrease expression,decrease expression,decrease expression

# Molecular target: T1, human MAGL (His-hMAGL)
# Experiment: Measurement of MAGL inhibitory activity by absorbance
# Type: biochemical
# Conditions: 10 μM test compound; substrate p-nitrophenyl acetate, absorbance at 405 nm
# Description: (1) Cloning of Human MGLL Encoding MAGL Protein and Construction of Expression Plasmid
# Human MGLL cDNA was obtained by PCR using human ORF Clone (DNAForm; Clone ID: 100004585) as a template. For PCR, two kinds of primers: […]
# The obtained PCR product was digested with Bam HI and Not I (Takara Bio Inc.), inserted into the Bam HI/Not I site of pET21HH(V) (pET21a (Novagen) inserted with His x6 and TEV Protease recognition sequence) by using Ligation High (Toyobo Co., Ltd.), and introduced into ECOS™ JM109 (Nippon Gene Co., Ltd.), whereby expression plasmid pET21HH(V)/His-hMGLLv2 for Escherichia coli was constructed. (2) Preparation of Recombinant Polyhistidine Tagged Human MAGL Protein
# Recombinant His-hMAGL protein was prepared by transforming ECOS™ Competent E. coli BL21(DE3) (Nippon Gene Co., Ltd.) with the pET21HH(V)/His-hMGLLv2 plasmid prepared above. Escherichia coli obtained by transformation was inoculated to 10 mL of LB medium (1% peptone, 0.5% yeast extract, 0.5% sodium chloride, 0.01% ampicillin), and cultured at 30° C. for 16 hr. […] When the turbidity of the culture medium reached about 500 Klett unit, the culture temperature was lowered to 16° C., isopropyl-β-D-thiogalactopyranoside (IPTG) was added to a final concentration of 1 mM, and the mixture was further cultured for 19 hr. After the completion of culture, the culture medium was centrifuged (4° C., 6,000 rpm, 10 min) to give His-hMAGL expression Escherichia coli. Then, His-hMAGL expression Escherichia coli was suspended in 50 mM Tris-HCl (pH 8.0, 100 ml) containing 1% Triton X-100, 20 mM imidazole, 3 mM DTT, 5 U/mL Benzonase (Merck) and 150 mM NaCl, sufficiently cooled, and subjected to sonication at […]=60%, 15 sec/ON, 30 sec/OFF for 3 min using ¾″ solid type crushed horn of BRANSON Digital Sonifier 450 (Central Scientific Commerce, Inc.). Furthermore, the homogenate was centrifuged (4° C., 15,000 rpm, 15 min) and the supernatant was obtained. As the purification apparatus, AKTA explorer 10s (GE Healthcare Japan Corporation) was used at 4° C. To the obtained supernatant was added 5M NaCl to the final salt concentration of 0.3 M, and the mixture was flown through and adsorbed to 5 mL of Ni-NTA Superflow Cartridges (QIAGEN) equilibrated in advance with buffer A (50 mM Tris-HCl (pH 8.0) containing 0.05% TritonX-100, 1 mM DTT, 300 mM NaCl). The column was sufficiently washed with buffer A containing 20 mM imidazole and His-hMAGL was eluted with buffer A containing imidazole at a final concentration of 250 mM. The eluate was further subjected to gel filtration using HiLoad 26/600 Superdex 200 pg (GE Healthcare Japan Corporation) equilibrated with 50 mM Tris-HCl pH 8.0 containing 10% glycerol, 0.05% TritonX-100, 1 mM DTT, 150 mM NaCl. The eluted fraction was concentrated by Amicon Ultra-15 10K (Merck Millipore) to give purified His-hMAGL protein. The protein concentration was measured by BCA Protein Assay Kit (Thermo Fisher Scientific) using BSA as the standard.
# (3) Measurement of MAGL Inhibitory Activity
# His-hMAGL obtained above was diluted with enzyme reaction buffer (10 mM Tris-HCl, pH 7.5, 1 mM EDTA, 0.1 (w/v) % Triton X-100) to a concentration of 60 ng/mL. […] Thereafter, to each well was added 750 μM p-nitrophenyl acetate (Wako Pure Chemical Industries, Ltd.) by 5 μL, and the absorbance at 405 nm was measured every 2 minutes up to 10 minutes by EnVision (PerkinElmer). The amount of change was obtained by subtracting the absorbance measured immediately after the start of the reaction from the absorbance measured 10 min after the start of the reaction.
# MAGL inhibitory rate (%) was calculated according to the following calculation formula. (1−(absorbance change amount of test compound addition group−absorbance change amount of enzyme addition-free group)[…](absorbance change amount of test compound addition-free group−absorbance change amount of enzyme addition-free group))×100
row,Structure (SMILES),inhibition at 10 µM [%]
1,"O=C(c1nccs1)N1CCN(C2CC(=O)N(c3cccc(-c4ccccn4)c3)C2)CC1 (stereo not shown) [Example 64, 1-(3-(pyridin-2-yl)phenyl)-4-(4-(1,3-thiazol-2-ylcarbonyl)piperazin-1-yl)pyrrolidin-2-one]",90
2,"O=C(c1nccs1)N1CCN(C2CC(=O)N(c3cccc(-c4cccnc4)c3)C2)CC1 (stereo not shown) [Example 65, 1-(3-(pyridin-3-yl)phenyl)-4-(4-(1,3-thiazol-2-ylcarbonyl)piperazin-1-yl)pyrrolidin-2-one]",93
3,"O=C(c1nccs1)N1CCN(C2CC(=O)N(c3cccc(-c4ccncc4)c3)C2)CC1 (stereo not shown) [Example 66, 1-(3-(pyridin-4-yl)phenyl)-4-(4-(1,3-thiazol-2-ylcarbonyl)piperazin-1-yl)pyrrolidin-2-one]",91
4,"O=C(c1nccs1)N1CCN(C2CC(=O)N(c3cccc4ccccc34)C2)CC1 (stereo not shown) [Example 70, 1-(1-naphthyl)-4-(4-(1,3-thiazol-2-ylcarbonyl)piperazin-1-yl)pyrrolidin-2-one]",91
5,"O=C(c1nccs1)N1CCN(C2CC(=O)N(c3ccc4cc(Br)ccc4c3)C2)CC1 (stereo not shown) [Example 71, 1-(6-brorno-2-naphthyl)-4-(4-(1,3-thiazol-2-ylcarbonyl)piperazin-1-yl)pyrrolidin-2-one]",90
6,"O=C(c1nccs1)N1CCN(C2CC(=O)N(c3ccc4c(c3)oc3ccccc34)C2)CC1 (stereo not shown) [Example 72, 1-(Dibenzo[b,d]furan-3-yl)-4-(4-(1,3-thiazol-2-ylcarbonyl)piperazin-1-yl)pyrrolidin-2-one]",92
7,"O=C(c1nccs1)N1CCN(C2CC(=O)N(c3cccc(I)c3)C2)CC1 (stereo not shown) [Example 75, 1-(3-iodophenyl)-4-(4-(1,3-thiazol-2-ylcarbonyl)piperazin-1-yl)pyrrolidin-2-one]",95
8,"O=C(c1nccs1)N1CCN(C2CC(=O)N(c3cccc(-c4ccc(F)cc4)c3)C2)CC1 (stereo not shown) [Example 76, 1-(4′-fluorobiphenyl-3-yl)-4-(4-(1,3-thiazol-2-ylcarbonyl)piperazin-1-yl)pyrrolidin-2-one]",95

# Continued, values first:
row,inhibition at 10 µM [%],Structure (SMILES)
1,96,"O=C(c1nccs1)N1CCN(C2CC(=O)N(c3cccc(Nc4ccc(F)cc4)c3)C2)CC1 (stereo not shown) [Example 77, 1-(3-((4-Fluorophenyl)amino)phenyl)-4-(4-(1,3-thiazol-2-ylcarbonyl)piperazin-1-yl)pyrrolidin-2-one]"
2,95,"O=C(c1nccs1)N1CCN(C2CC(=O)N(c3cccc(Oc4ccc(F)cc4)c3)C2)CC1 (stereo not shown) [Example 79, 1-(3-(4-Fluorophenoxy)phenyl)-4-(4-(1,3-thiazol-2-ylcarbonyl)piperazin-1-yl)pyrrolidin-2-one]"
3,100,"O=C(c1nccs1)N1CCN([C@@H]2CC(=O)N(c3ccc4c(ccn4-c4ncc(C(F)(F)F)cn4)c3)C2)CC1 [Example 80, (4R)-4-(4-(1,3-Thiazol-2-ylcarbonyl)piperazin-1-yl)-1-(1-(5-(trifluoromethyl)pyrimidin-2-yl)-1H-indol-5-yl)pyrrolidin-2-one]"
4,97,"O=C(c1nccs1)N1CCN(C2CC(=O)N(c3ccc4c(cnn4-c4ccc(F)cn4)c3)C2)CC1 (stereo not shown) [Example 81, 1-(1-(5-fluoropyridin-2-yl)-1H-indazol-5-yl)-4-(4-(1,3-thiazol-2-ylcarbonyl)piperazin-1-yl)pyrrolidin-2-one]"
5,95,"O=C(c1nccs1)N1CCN(C2CC(=O)N(c3ccc4c(ccn4-c4ccc(F)cn4)c3)C2)CC1 (stereo not shown) [Example 82, 1-(1-(5-fluoropyridin-2-yl)-1H-indol-5-yl)-4-(4-(1,3-thiazol-2-ylcarbonyl)piperazin-1-yl)pyrrolidin-2-one]"
6,96,"O=C(c1nccs1)N1CCN(C2CC(=O)N(c3ccc4c(ccn4-c4ncc(F)cn4)c3)C2)CC1 (stereo not shown) [Example 83, 1-(1-(5-fluoropyrirnidin-2-yl)-1H-indol-5-yl)-4-(4-(1,3-thiazol-2-ylcarbonyl)piperazin-1-yl)pyrrolidin-2-one]"
7,96,"O=C(c1nccs1)N1CCN(C2CC(=O)N(c3ccc4c(ccn4-c4ncc(Cl)cn4)c3)C2)CC1 (stereo not shown) [Example 84, 1-(1-(5-chloropyrirnidin-2-yl)-1H-indol-5-yl)-4-(4-(1,3-thiazol-2-ylcarbonyl)piperazin-1-yl)pyrrolidin-2-one]"
8,99,"O=C(c1nccs1)N1CCN(C2CC(=O)N(c3ccc4c(cnn4-c4ccc(F)cc4)c3)C2)CC1 (stereo not shown) [Example 85, 1-(1-(4-Fluorophenyl)-1H-indazol-5-yl)-4-(4-(1,3-thiazol-2-ylcarbonyl)piperazin-1-yl)pyrrolidin-2-one]"
9,99,"O=C(c1nccs1)N1CCN(C2CC(=O)N(c3ccc4c(cnn4-c4ccc(Cl)cn4)c3)C2)CC1 (stereo not shown) [Example 86, 1-(1-(5-chloropyridin-2-yl)-1H-indazol-5-yl)-4-(4-(1,3-thiazol-2-ylcarbonyl)piperazin-1-yl)pyrrolidin-2-one]"
10,98,"O=C(c1nccs1)N1CCN(C2CC(=O)N(c3ccc4c(ccn4-c4ccc(Cl)cn4)c3)C2)CC1 (stereo not shown) [Example 87, 1-(1-(5-chloropyridin-2-yl)-1H-indol-5-yl)-4-(4-(1,3-thiazol-2-ylcarbonyl)piperazin-1-yl)pyrrolidin-2-one]"
